{
  "source": "ChEMBL document CHEMBL3112580",
  "about": "“A new face for old antibiotics: tetracyclines in treatment of amyloidoses” (2013)",
  "key": {"[1]": {"organism": "Mus musculus", "assay": "Antiamyloidogenic activity in R6/2 mouse Huntington's disease model assessed as increase in survival rate relative to control", "assay_type": "functional"}, "[2]": {"organism": "Mus musculus", "assay": "Antiamyloidogenic activity in mouse transfected with human amylin/amyloid polypeptide assessed as increase in survival time relative to control", "assay_type": "functional"}, "[3]": {"organism": "Homo sapiens", "assay": "Antiprion activity at scrapie prion protein in human brain at 1 mM after 1 hr by Western blotting analysis", "assay_type": "tissue-based"}, "[4]": {"test_system": "Mus musculus", "assay": "Antiamyloidogenic activity in CMV-lambda6 mouse harboring human lambda LC protein at 0.5 mg/ml administered in drinking water for 3 to 6 months by Congo red staining-based microscopy", "assay_type": "functional"}},
  "data": [
    {"smiles": "CN(C)c1ccc(O)c2c1C[C@H]1C[C@H]3[C@H](N(C)C)C(O)=C(C(N)=O)C(=O)[C@@]3(O)C(O)=C1C2=O", "note": "[MINOCYCLINE]", "values": [
      {"measurement": "Survival", "setting": "[1]", "value": 14, "unit": "%"}
    ]},
    {"smiles": "CN(C)[C@@H]1C(O)=C(C(N)=O)C(=O)[C@@]2(O)C(O)=C3C(=O)c4c(O)cccc4[C@@](C)(O)[C@H]3C[C@@H]12", "note": "[TETRACYCLINE]", "values": [
      {"measurement": "Survival", "setting": "[2]", "value": 254, "unit": "%"}
    ]},
    {"smiles": "C[C@H]1c2cccc(O)c2C(=O)C2=C(O)[C@]3(O)C(=O)C(C(N)=O)=C(O)[C@@H](N(C)C)[C@@H]3[C@@H](O)[C@@H]21.O", "note": "[DOXYCYCLINE]", "values": [
      {"measurement": "Activity", "setting": "[3]", "value": 80, "unit": "%"},
      {"measurement": "Activity", "setting": "[4]", "value": 23, "unit": "%"}
    ]}
  ]
}
